EC50 and IC50 data for 30 molecules are collected here from patent publication US9856262B2, “Analogues of 4H-pyrazolo[1,5-a] benzimidazole compound as PARP inhibitors” (HUBEI BIO-PHARMACEUTICAL INDUSTRIAL TECHNOLOGICAL INSTITUTE …, priority 2014, dated 2018).

For one test, the system named is HCC1937 cells. The experiment in a line: Cellular PARylation assay. Format: cell-based. As to the method:
Cellular PARylation Assay
HCC1937 cells were planted into 96 well plates at 4×10^4 cells/well and incubated at 37° C. in an incubator overnight. After being treated with a test compound for 30 min, cells were then treated with 1 mM H2O2 for 10 min. The cells were washed with 200 ul pre-chilled PBS twice and fixed with 100 ul pre-chilled methanol/acetone (7:3) on ice for 30 min. After being air-dried, the plates were blocked using PBS-Tween blocking solution (0.05%) with dissolved 5% nonfat dry milk for 30 min at room temperature. The cells were incubated with anti-PAR antibody 10H (1:100) at room temperature for 1 hour followed by washing with PBS-Tween20 for 3 times; and then added into a blocking solution including goat anti-mouse fluorescein isothiocyanate (FITC)-coupled secondary antibody and 1 μg/mL DAPI to incubate away from light at room temperature for 1 hour. After being washed with PBS-Tween20 for 3 times, the plate was analyzed with a fluorescence microplate counter (Flexstation III, Molecular Device).

Another test has as its target T1, PARP-1 (Homo sapiens, UniProt P09874).
T1 construct: purchased
The experiment in a line: PARP enzymatic assay (HT Universal Colorimetric PARP1 Assay Kit). Format: biochemical. Conditions: read-out: PARP-1 enzymatic inhibition IC50. As to the method: PARP Enzymatic Assay (Following the Manual of HT Universal Colorimetric PARP1 Assay Kit).
Histone proteins were coated on a 96-well plate and incubated overnight at 4° C. After be washed 3 times with 200 ul PBST solution, the plate was blocked with a blocking solution and incubated for 30 min at room temperature, and then washed with PBST solution 3 times. A compound to be tested was treated and added to the plate. Thereafter, 20 μl of diluted PARP1 (1 nM) or 20 μl of PARP2 (3 nM) solution was added into the reaction system and incubated for 1 or 2 hours. 50 ul of streptavidin-HRP mixture (1:50) was added into the plate and incubated for 30 min at room temperature. The plate was then washed with three times with PBST buffer. 100 μl of (HRP) (Chemiluminescent substrate A and substrate B (1:1)) was added into the plate, and the plate was immediately read on a microplate reader (Envision, PerkinElmer).

The mark [1] stands for this setting: Homo sapiens, HCC1937 cells, compound 30 min then 1 mM H2O2 10 min, read-out: cellular PARylation EC50.

Each structure is given as a SMILES string. Like-named read-outs stand apart in the source and are kept apart here.

T1 sequence (P09874 whole entry): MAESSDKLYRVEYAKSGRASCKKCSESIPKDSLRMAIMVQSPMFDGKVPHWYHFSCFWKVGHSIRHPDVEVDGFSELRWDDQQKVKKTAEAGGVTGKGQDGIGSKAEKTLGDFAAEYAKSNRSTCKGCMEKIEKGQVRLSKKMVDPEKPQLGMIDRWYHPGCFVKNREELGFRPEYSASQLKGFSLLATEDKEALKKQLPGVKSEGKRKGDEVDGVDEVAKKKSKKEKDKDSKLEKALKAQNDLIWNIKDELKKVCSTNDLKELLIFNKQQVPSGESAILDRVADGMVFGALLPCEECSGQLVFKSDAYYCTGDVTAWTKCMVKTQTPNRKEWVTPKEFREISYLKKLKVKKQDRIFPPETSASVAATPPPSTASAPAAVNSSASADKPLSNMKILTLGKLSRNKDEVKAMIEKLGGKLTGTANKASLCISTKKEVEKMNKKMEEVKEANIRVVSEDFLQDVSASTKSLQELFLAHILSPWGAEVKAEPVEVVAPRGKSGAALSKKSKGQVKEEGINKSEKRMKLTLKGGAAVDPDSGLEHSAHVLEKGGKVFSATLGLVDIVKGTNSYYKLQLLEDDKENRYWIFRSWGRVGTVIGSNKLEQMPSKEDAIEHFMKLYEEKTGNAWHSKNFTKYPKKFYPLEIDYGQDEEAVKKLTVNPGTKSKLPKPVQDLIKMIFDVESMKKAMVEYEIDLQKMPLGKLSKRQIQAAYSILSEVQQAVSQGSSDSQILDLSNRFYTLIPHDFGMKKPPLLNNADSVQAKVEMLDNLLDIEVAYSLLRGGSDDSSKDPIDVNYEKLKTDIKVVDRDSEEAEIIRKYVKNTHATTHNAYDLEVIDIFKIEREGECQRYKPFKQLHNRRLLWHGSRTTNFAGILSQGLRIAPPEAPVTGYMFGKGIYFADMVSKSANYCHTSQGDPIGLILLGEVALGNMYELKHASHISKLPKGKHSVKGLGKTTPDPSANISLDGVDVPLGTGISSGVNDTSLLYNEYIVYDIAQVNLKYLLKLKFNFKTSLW

Regarding `C[C@]1(c2nc3c(C(N)=O)cccc3[nH]2)CCCN1` [ABT-888, veliparib, reference compound], the EC50 (as a rule, the midpoint of the concentration-response curve) with HCC1937 cells (HCC1937 cells, compound 30 min then 1 mM H2O2 10 min, read-out: cellular PARylation EC50) fell in the range of 1 to 100 nM. For the molecule `Cn1ncnc1[C@H]1c2n[nH]c(=O)c3cc(F)cc(c23)N[C@@H]1c1ccc(F)cc1` [BMN-673, reference compound], the EC50 with HCC1937 cells (Homo sapiens, HCC1937, read-out: cellular PARylation EC50) lay within 1 to 100 nM.

With `NC(=O)c1cc(F)cc2[nH]c3c(C4CCNCC4)cnn3c12` [Example 1, 6-fluoro-3-(piperidin-4-yl)-4H-benzo[4,5]imidazo[1,2-b]pyrazole-8-carboxamide], at PARP-1, the IC50 (usually the concentration needed to halve the response being measured) lay within 1 to 100 nM. Further, the EC50 with HCC1937 cells (setting [1]) lay within 101 to 1000 nM. Take `CCN1CCC(c2cnn3c2[nH]c2cc(F)cc(C(N)=O)c23)CC1` [Example 2, 3-(1-ethylpiperidin-4-yl)-6-fluoro-4H-benzo[4,5]imidazo[1,2-b]pyrazole-8-carboxamide]: the IC50 at PARP-1 is 1 to 100 nM. In addition, the concentration for a half-maximal effect (EC50) with HCC1937 cells (setting [1]) lay within 1 to 100 nM. Turning to `NC(=O)c1cc(F)cc2[nH]c3c(C4CCN(CCF)CC4)cnn3c12` [Example 3, 6-fluoro-3-(1-(2-fluoroethyl)piperidin-4-yl)-4H-benzo[4,5]imidazo[1,2-b]pyrazole-8-carboxamide], on PARP-1, the half-maximal inhibitory concentration (IC50) fell in the range of 1 to 100 nM. In addition, the EC50 with HCC1937 cells (setting [1]) lay within 1 to 100 nM. Turning to `NC(=O)c1cc(F)cc2[nH]c3c(C4CCN(C5CC5)CC4)cnn3c12` [Example 4, 3-(1-cyclopropylpiperidin-4-yl)-6-fluoro-4H-benzo[4,5]imidazo[1,2-b]pyrazole-8-carboxamide], the IC50 at PARP-1 lay in the range of 1 to 100 nM. In addition, in the test with HCC1937 cells (setting [1]), the concentration for a half-maximal effect (EC50) is 1 to 100 nM. For the molecule `NC(=O)c1cc(F)cc2[nH]c3c(C4CCN(CC5CC5)CC4)cnn3c12` [Example 5, 3-(1-(cyclopropylmethyl)piperidin-4-yl)-6-fluoro-4H-benzo[4,5]imidazo[1,2-b]pyrazole-8-carboxamide], on PARP-1, the IC50 lay within 1 to 100 nM. For the same molecule, the EC50 in the test with HCC1937 cells (setting [1]) is 1 to 100 nM.

Turning to `CC(C)(O)CN1CCC(c2cnn3c2[nH]c2cc(F)cc(C(N)=O)c23)CC1` [Example 6, 6-fluoro-3-(1-(2-hydroxy-2-methylpropyl)piperidin-4-yl)-4H-benzo[4,5]imidazo[1,2-b]pyrazole-8-carboxamide], the IC50 at PARP-1 was in the range of 1 to 100 nM. Further, the EC50 in the test on HCC1937 cells (setting [1]) is 1 to 100 nM. Regarding `CC(C)(F)CN1CCC(c2cnn3c2[nH]c2cc(F)cc(C(N)=O)c23)CC1` [Example 7, 6-fluoro-3-(1-(2-fluoro-2-methylpropyl)piperidin-4-yl)-4H-benzo[4,5]imidazo[1,2-b]pyrazole-8-carboxamide], the half-maximal inhibitory concentration (IC50) at PARP-1 was in the range of 1 to 100 nM. Also, the EC50 in the test on HCC1937 cells (setting [1]) lay in the range of 1 to 100 nM. For the molecule `NC(=O)c1cc(F)cc2[nH]c3c(C4CCN(C(=O)C5CC5)CC4)cnn3c12` [Example 8, 3-(1-(cyclopropylcarbonyl)piperidin-4-yl)-6-fluoro-4H-benzo[4,5]imidazo[1,2-b]pyrazole-8-carboxamide], the IC50 on PARP-1 lay in the range of 1 to 100 nM. Besides, the concentration giving a half-maximal response (EC50) in the test on HCC1937 cells (setting [1]) lay in the range of 101 to 1000 nM.

As for `CN1CCC(c2cnn3c2[nH]c2cc(F)cc(C(N)=O)c23)CC1` [Example 9, 6-fluoro-3-(1-methylpiperidin-4-yl)-4H-benzo[4,5]imidazo[1,2-b]pyrazole-8-carboxamide], the IC50 at PARP-1 lay in the range of 1 to 100 nM. Besides, the half-maximal effective concentration (EC50) in the test with HCC1937 cells (setting [1]) lay in the range of 1 to 100 nM. `CC(C)N1CCC(c2cnn3c2[nH]c2cc(F)cc(C(N)=O)c23)CC1` [Example 10, 6-fluoro-3-(1-isopropylpiperidin-4-yl)-4H-benzo[4,5]imidazo[1,2-b]pyrazole-8-carboxamide]: the half-inhibitory concentration (IC50) on PARP-1 is 1 to 100 nM. In addition, in the test with HCC1937 cells (setting [1]), the EC50 was in the range of 1 to 100 nM. Turning to `NC(=O)c1cc(F)cc2[nH]c3c(C4CCN(C5COC5)CC4)cnn3c12` [Example 11, 6-fluoro-3-(1-(oxetan-3-yl)piperidin-4-yl)-4H-benzo[4,5]imidazo[1,2-b]pyrazole-8-carboxamide], the IC50 on PARP-1 was in the range of 1 to 100 nM. Moreover, in the test on HCC1937 cells (setting [1]), the EC50 is 101 to 1000 nM. With `CCCN1CCC(c2cnn3c2[nH]c2cc(F)cc(C(N)=O)c23)CC1` [Example 12, 6-fluoro-3-(1-propylpiperidin-4-yl)-4H-benzo[4,5]imidazo[1,2-b]pyrazole-8-carboxamide], the half-maximal inhibitory concentration (IC50) on PARP-1 lay in the range of 1 to 100 nM. The EC50 with HCC1937 cells (setting [1]) lay within 1 to 100 nM. For the molecule `NCCN1CCC(c2cnn3c2[nH]c2cc(F)cc(C(N)=O)c23)CC1` [Example 13, 3-(1-(2-aminoethyl)piperidin-4-yl)-6-fluoro-4H-benzo[4,5]imidazo[1,2-b]pyrazole-8-carboxamide], the IC50 on PARP-1 was 1 to 100 nM. Also, the EC50 in the test with HCC1937 cells (setting [1]) is 101 to 1000 nM.

Take `CN(C)CCN1CCC(c2cnn3c2[nH]c2cc(F)cc(C(N)=O)c23)CC1` [Example 14, 3-(1-(2-(dimethylamino)ethyl)piperidin-4-yl)-6-fluoro-4H-benzo[4,5]imidazo[1,2-b]pyrazole-8-carboxamide]: the IC50 at PARP-1 is 1 to 100 nM. The EC50 in the test on HCC1937 cells (setting [1]) was in the range of 1 to 100 nM.

Take `COCCN1CCC(c2cnn3c2[nH]c2cc(F)cc(C(N)=O)c23)CC1` [Example 15, 6-fluoro-3-(1-(2-methoxyethyl)piperidin-4-yl)-4H-benzo[4,5]imidazo[1,2-b]pyrazole-8-carboxamide]: at PARP-1, the IC50 lay in the range of 1 to 100 nM. The EC50 with HCC1937 cells (setting [1]) lay in the range of 1 to 100 nM. With `NC(=O)c1cc(F)cc2[nH]c3c(C4CCN(CCO)CC4)cnn3c12` [Example 16, 6-fluoro-3-(1-(2-hydroxyethyl)piperidin-4-yl)-4H-benzo[4,5]imidazo[1,2-b]pyrazole-8-carboxamide], at PARP-1, the concentration for half-maximal inhibition (IC50) is 1 to 100 nM. The EC50 in the test on HCC1937 cells (setting [1]) is 1 to 100 nM. Regarding `CCN1CCCC(c2cnn3c2[nH]c2cc(F)cc(C(N)=O)c23)C1` (stereo not drawn) [Example 17, 3-(1-ethylpiperidin-3-yl)-6-fluoro-4H-benzo[4,5]imidazo[1,2-b]pyrazole-8-carboxamide], at PARP-1, the IC50 fell in the range of 1 to 100 nM. For the same molecule, the concentration giving a half-maximal response (EC50) in the test with HCC1937 cells (setting [1]) lay in the range of 101 to 1000 nM. For `CCN1CCCC(c2cnn3c2[nH]c2cc(F)cc(C(N)=O)c23)CC1` (stereo not drawn) [Example 18, 3-(1-ethylazepan-4-yl)-6-fluoro-4H-benzo[4,5]imidazo[1,2-b]pyrazole-8-carboxamide], the IC50 on PARP-1 was in the range of 1 to 100 nM. For the same molecule, the EC50 in the test with HCC1937 cells (setting [1]) is 1 to 100 nM. Turning to `CN1CCCC(c2cnn3c2[nH]c2cc(F)cc(C(N)=O)c23)CC1` (stereo not drawn) [Example 19, 6-fluoro-3-(1-methylazepan-4-yl)-4H-benzo[4,5]imidazo[1,2-b]pyrazole-8-carboxamide], the half-inhibitory concentration (IC50) at PARP-1 fell in the range of 1 to 100 nM. Further, the concentration giving a half-maximal response (EC50) in the test with HCC1937 cells (setting [1]) was in the range of 1 to 100 nM.

In the case of `CN1CCC(c2cnn3c2[nH]c2cc(F)cc(C(N)=O)c23)C1` (stereo not drawn) [Example 20, 6-fluoro-3-(1-methylpyrrolidin-3-yl)-4H-benzo[4,5]imidazo[1,2-b]pyrazole-8-carboxamide], the IC50 at PARP-1 lay in the range of 1 to 100 nM. Further, the EC50 in the test on HCC1937 cells (setting [1]) lay within 1 to 100 nM. As to `CCN1CCC(c2cnn3c2[nH]c2cc(F)cc(C(N)=O)c23)C1` (stereo not drawn) [Example 21, 3-(1-ethylpyrrolidin-3-yl)-6-fluoro-4H-benzo[4,5]imidazo[1,2-b]pyrazole-8-carboxamide], at PARP-1, the IC50 lay in the range of 1 to 100 nM. Besides, in the test with HCC1937 cells (setting [1]), the EC50 was in the range of 1 to 100 nM. `CC(C)N1CCC(c2cnn3c2[nH]c2cc(F)cc(C(N)=O)c23)C1` (stereo not drawn) [Example 22, 6-fluoro-3-(1-isopropylpyrrolidin-3-yl)-4H-benzo[4,5]imidazo[1,2-b]pyrazole-8-carboxamide]: at PARP-1, the IC50 was 1 to 100 nM. In the test on HCC1937 cells (setting [1]), the concentration for a half-maximal effect (EC50) was in the range of 1 to 100 nM. For the molecule `NC(=O)c1cc(F)cc2[nH]c3c(C4CCCN4)cnn3c12` (stereo not drawn) [Example 23, 6-fluoro-3-(pyrrolidin-2-yl)-4H-benzo[4,5]imidazo[1,2-b]pyrazole-8-carboxamide], the IC50 at PARP-1 fell in the range of 1 to 100 nM. Also, the EC50 with HCC1937 cells (setting [1]) was in the range of 1 to 100 nM. Take `CCCN1CCCC1c1cnn2c1[nH]c1cc(F)cc(C(N)=O)c12` (stereo not drawn) [Example 24, 6-fluoro-3-(1-propylpyrrolidin-2-yl)-4H-benzo[4,5]imidazo[1,2-b]pyrazole-8-carboxamide]: at PARP-1, the IC50 was in the range of 1 to 100 nM. The EC50 in the test on HCC1937 cells (setting [1]) lay in the range of 101 to 1000 nM. The corresponding values for `CN1CCCC1c1cnn2c1[nH]c1cc(F)cc(C(N)=O)c12` (stereo not drawn) [Example 25, 6-fluoro-3-(1-methylpyrrolidin-2-yl)-4H-benzo[4,5]imidazo[1,2-b]pyrazole-8-carboxamide] are 1 to 100 nM and 1 to 100 nM. The corresponding values for `CCN1CCCC1c1cnn2c1[nH]c1cc(F)cc(C(N)=O)c12` (stereo not drawn) [Example 26, 3-(1-ethylpyrrolidin-2-yl)-6-fluoro-4H-benzo[4,5]imidazo[1,2-b]pyrazole-8-carboxamide] are 1 to 100 nM and 101 to 1000 nM. Regarding `CCN1CCC(c2cnn3c2[nH]c2cccc(C(N)=O)c23)CC1` [Example 27, 3-(1-ethylpiperidin-4-yl)-4H-benzo[4,5]imidazo[1,2-b]pyrazole-8-carboxamide], on PARP-1, the half-inhibitory concentration (IC50) was in the range of 1 to 100 nM. The EC50 in the test with HCC1937 cells (setting [1]) lay within 1 to 100 nM.

Consider `NC(=O)c1cccc2cn(-c3ccc([C@@H]4CCCNC4)cc3)nc12` [MK-4827, niraparib, reference compound], for which, in the test on HCC1937 cells (setting [1]), the EC50 was in the range of 1 to 100 nM.
